Laboratory results: PMC12141164, “Phase-1 study of vamotinib (PF-114), a 3rd generation BCR::ABL1 tyrosine kinase-inhibitor, in chronic myeloid leukaemia” (Annals of Hematology, 2025)
Values joined by “and” are separate entries in the source; they are usually repeats but may differ in a detail not shown here. Equal entries are not always repeated.

System: BCR::ABL1 positive CML
Assay: Phase-1 study: haematological, cytogenetic and molecular response
Assay type: in vivo, human
Experimental: Haematological response evaluations were done on the first day of each cycle of therapy; molecular response on the first day of cycles 1, 2, 4, 7, 10, 13 and then every three months; cytogenetic response – at screening and on the first days of cycles 4, 7, 13 and every three months thereafter, provided that there was no major molecular response.
Cytogenetic response was assessed by differential staining of chromosomes and if uninformative, by fluorescent in situ hybridization (FISH). Mutations in BCR::ABL1 were assessed by Sanger and next generation sequencing (NGS). Sanger sequencing was done at each center; NGS analyses were done in the laboratory of Prof. Susan Branford, University of Adelaide. Discordances were resolved as described in Table S2. Molecular response was assessed using the ratio of BCR::ABL1 to ABL1 measured according to the IS [9].

Cc1ccc(C(=O)Nc2ccc(CN3CCN(C)CC3)c(C(F)(F)F)c2)cc1C#Cc1nnc2ccccn12 [vamotinib]
CCyR (Advanced phase CML (N = 5)): none and 0/5
MCyR (Advanced phase CML (N = 5)): none and 0/5
MMR (Advanced phase CML (N = 5)): 0/5
subjects with BCR::ABL1^T315I who responded (BCR::ABL1^T315I): 5 of 16 subjects
CCyR achieved at treatment (Cohort 1 50 mg N=3): 0 no. (%)
CCyR by 6 months (Cohort 1 50 mg N=3): 0 no. (%)
CCyR by 12 months (Cohort 1 50 mg N=3): 0 no. (%)
CHR achieved at treatment (Cohort 1 50 mg N=3): 1 (50) no. (%)
CHR by the 3 months (Cohort 1 50 mg N=3): 0 no. (%)
CHR by the 6th months (Cohort 1 50 mg N=3): 0 no. (%)
CHR by the 12th months (Cohort 1 50 mg N=3): 1 (50) no. (%)
MCyR achieved at treatment (Cohort 1 50 mg N=3): 0 no. (%)
MCyR by 6 months (Cohort 1 50 mg N=3): 0 no. (%)
MCyR by 12 months (Cohort 1 50 mg N=3): 0 no. (%)
MMR achieved at treatment (Cohort 1 50 mg N=3): 0 no. (%)
MMR by 6 months (Cohort 1 50 mg N=3): 0 no. (%)
MMR by 12 months (Cohort 1 50 mg N=3): 0 no. (%)
MMR by 24 months (Cohort 1 50 mg N=3): 0 no. (%)
Subjects with loss of CCyR (Cohort 1 50 mg N=3): 0 no. (%)
Subjects with loss of CHR (Cohort 1 50 mg N=3): 0 no. (%)
Subjects with loss of MCyR (Cohort 1 50 mg N=3): 0 no. (%)
Subjects with loss of MMR (Cohort 1 50 mg N=3): 0 no. (%)
CCyR achieved at treatment (Cohort 2 100 mg N=3): 1 (33) no. (%)
CCyR by 6 months (Cohort 2 100 mg N=3): 0 no. (%)
CCyR by 12 months (Cohort 2 100 mg N=3): 0 no. (%)
CHR achieved at treatment (Cohort 2 100 mg N=3): 0 no. (%)
CHR by the 3 months (Cohort 2 100 mg N=3): 0 no. (%)
CHR by the 6th months (Cohort 2 100 mg N=3): 0 no. (%)
CHR by the 12th months (Cohort 2 100 mg N=3): 0 no. (%)
MCyR by 6 months (Cohort 2 100 mg N=3): 1 (33) no. (%)
MCyR by 12 months (Cohort 2 100 mg N=3): 1 (33) no. (%)
MMR achieved at treatment (Cohort 2 100 mg N=3): 1 (33) no. (%)
MMR by 6 months (Cohort 2 100 mg N=3): 0 no. (%)
MMR by 12 months (Cohort 2 100 mg N=3): 0 no. (%)
MMR by 24 months (Cohort 2 100 mg N=3): 1 (33) no. (%)
Subjects with loss of CCyR (Cohort 2 100 mg N=3): 0 no. (%)
Subjects with loss of CHR (Cohort 2 100 mg N=3): 0 no. (%)
Subjects with loss of MCyR (Cohort 2 100 mg N=3): 0 no. (%)
Subjects with loss of MMR (Cohort 2 100 mg N=3): 0 no. (%)
CCyR achieved at treatment (Cohort 3 200 mg N=11): 3 (30) no. (%)
CCyR by 6 months (Cohort 3 200 mg N=11): 2 (20) no. (%)
CCyR by 12 months (Cohort 3 200 mg N=11): 2 (20) no. (%)
CHR achieved at treatment (Cohort 3 200 mg N=11): 2 (40) no. (%)
CHR by the 3 months (Cohort 3 200 mg N=11): 2 (40) no. (%)
CHR by the 6th months (Cohort 3 200 mg N=11): 2 (40) no. (%)
CHR by the 12th months (Cohort 3 200 mg N=11): 2 (40) no. (%)
MCyR achieved at treatment (Cohort 3 200 mg N=11): 4 (50) no. (%)
MCyR by 6 months (Cohort 3 200 mg N=11): 3 (38) no. (%)
MCyR by 12 months (Cohort 3 200 mg N=11): 3 (38) no. (%)
MMR achieved at treatment (Cohort 3 200 mg N=11): 2 (18) no. (%)
MMR by 6 months (Cohort 3 200 mg N=11): 1 (9) no. (%)
MMR by 12 months (Cohort 3 200 mg N=11): 1 (9) no. (%)
MMR by 24 months (Cohort 3 200 mg N=11): 2 (18) no. (%)
Subjects with loss of CCyR (Cohort 3 200 mg N=11): 1 (33) no. (%)
Subjects with loss of CHR (Cohort 3 200 mg N=11): 2 (100) no. (%)
Subjects with loss of MCyR (Cohort 3 200 mg N=11): 1 (25) no. (%)
Subjects with loss of MMR (Cohort 3 200 mg N=11): 0 no. (%)
CCyR achieved at treatment (Cohort 4 400 mg N=12): 1 (8) no. (%)
CCyR by 6 months (Cohort 4 400 mg N=12): 1 (8) no. (%)
CCyR by 12 months (Cohort 4 400 mg N=12): 1 (8) no. (%)
CHR achieved at treatment (Cohort 4 400 mg N=12): 4 (57) no. (%)
CHR by the 3 months (Cohort 4 400 mg N=12): 2 (29) no. (%)
CHR by the 6th months (Cohort 4 400 mg N=12): 2 (29) no. (%)
CHR by the 12th months (Cohort 4 400 mg N=12): 4 (57) no. (%)
MCyR achieved at treatment (Cohort 4 400 mg N=12): 2 (19) no. (%)
MCyR by 6 months (Cohort 4 400 mg N=12): 2 (19) no. (%)
MCyR by 12 months (Cohort 4 400 mg N=12): 2 (19) no. (%)
MMR achieved at treatment (Cohort 4 400 mg N=12): 0 no. (%)
MMR by 6 months (Cohort 4 400 mg N=12): 0 no. (%)
MMR by 12 months (Cohort 4 400 mg N=12): 0 no. (%)
MMR by 24 months (Cohort 4 400 mg N=12): 0 no. (%)
Subjects with loss of CCyR (Cohort 4 400 mg N=12): 0 no. (%)
Subjects with loss of CHR (Cohort 4 400 mg N=12): 4 (100) no. (%)
Subjects with loss of MCyR (Cohort 4 400 mg N=12): 0 no. (%)
Subjects with loss of MMR (Cohort 4 400 mg N=12): 0 no. (%)
CCyR achieved at treatment (Cohort 5 500 mg N=3): 0 no. (%)
CCyR by 6 months (Cohort 5 500 mg N=3): 0 no. (%)
CCyR by 12 months (Cohort 5 500 mg N=3): 0 no. (%)
CHR achieved at treatment (Cohort 5 500 mg N=3): 0 no. (%)
CHR by the 3 months (Cohort 5 500 mg N=3): 0 no. (%)
CHR by the 6th months (Cohort 5 500 mg N=3): 0 no. (%)
CHR by the 12th months (Cohort 5 500 mg N=3): 0 no. (%)
MCyR achieved at treatment (Cohort 5 500 mg N=3): 0 no. (%)
MCyR by 6 months (Cohort 5 500 mg N=3): 0 no. (%)
MCyR by 12 months (Cohort 5 500 mg N=3): 0 no. (%)
MMR achieved at treatment (Cohort 5 500 mg N=3): 0 no. (%)
MMR by 6 months (Cohort 5 500 mg N=3): 0 no. (%)
MMR by 12 months (Cohort 5 500 mg N=3): 0 no. (%)
MMR by 24 months (Cohort 5 500 mg N=3): 0 no. (%)
Subjects with loss of CCyR (Cohort 5 500 mg N=3): 0 no. (%)
Subjects with loss of CHR (Cohort 5 500 mg N=3): 0 no. (%)
